Reference: patent US11191835B2, “Chlorin-vitamin conjugates” (priority 2018, dated 2021)
Read-outs that look alike come from different tables or passages of the source.

Columns and labels:
[1] = system: Mouse colon carcinoma cell line CT26.WT; assay: Cell survival (MTT) assay, CT26 colon carcinoma cells; format: cell-based
Method: Mouse colon carcinoma cell line CT26. WT was purchased from the American Type Culture Collection (ATCC CRL-2638). […] During the incubation period, growth media was changed once with fresh pre-warmed medium (pH 7.2). To harvest the cells, old growth media was aspirated and 5 mL 0.25% trypsin solution (Thermo Sci Hyclone, Waltham, Mass., USA) were added. The cells were incubated for 10 min and gently scraped to detach cells from the flask walls. Clumped cells were broken up gently and 1 mL of the trypsinized cell homogenate suspension was transferred into a new T75 cell culture flask containing pre-warmed media (20 mL) for further culturing. […] After 24 h treatment, old growth media containing the PS or compounds were aspirated out and replaced with fresh media. Plates were then positioned below a non-coherent LumaCare LC-122 650 nm light source for 1, 2, and 5 min at an energy fluence rate of 16 mW/cm^2 (measured using a Newport optical power meter Model 840). Unirradiated cells served as control samples. […] Samples were allowed to incubate for additional 2 h, after which dark blue crystals formed. DMSO was added to each well and plates were shaken at room temperature for 1 h to dissolve the purplish-blue formazan crystals. Absorbance values at 490 nm were measured on a microplate reader (BioRad 550). Cell survival was calculated based on the absorbance of the untreated cells alone (as control) and were directly proportional to the number of viable cells in culture. Results were reported as average of triplicate measurements.

[2] = system: triple-negative breast cancer cell BT549; format: cell-based; set-up: % Cell Survival: concentration or dose not given beside the values; conditions: for % Cell Survival: BT549, 24 h compound treatment followed by 2 min light irradiation (1.92 J cm^−2); for dark toxicity / dark toxicity ranking: absence of light
Method: (§1) Human mammary epithelial carcinoma cell lines purchased from the American Type Culture Collection ZR-75-1 (ATCC CRL-1500) and BT-549 (ATCC HTB-122) were cultured according to ATCC protocol. Briefly, ZR-75-1 cells were grown in RPMI 1640 medium (ATCC), while BT-549 were grown in RPMI 1640 containing 0.023 IU/mL insulin. Both were supplemented with 10% fetal bovine serum (FBS). Cells were grown to 80-90% confluence in 75-cm^2 culture flasks (Corning) for 4-5 days in a humidified incubator (Fisher Scientific Isotemp) with 5% CO2 at 37° C. During the incubation period, growth media was changed once with fresh pre-warmed media (pH 7.2). To harvest the cells, old growth media was aspirated out and 3 mL 0.25% trypsin solution (Thermo Sci Hyclone) were added. The cells were incubated for 5 min and the cell pellet after centrifugation was resuspended in 3 mL media, broken up gently, then 1 ml of suspended cells was transferred into a new T75 cell culture flask containing pre-warmed media (20 mL) for further culturing.
(§2) Cells were grown to confluence in a 96-well plate (5×10^4 cells/well) and treated for 24 h with compounds or photosensitizers of varying concentrations ranging from 5 nM to 50 μM) in growth media from a stock solution of 10 mM in DMSO (dimethyl sulfoxide, Fisher). After 24 h treatment, old growth media containing the PS or compounds were aspirated out and replaced with fresh media. Plates were then positioned below a non-coherent LumaCare LC-122 650 nm light source for 1, 2, and 5 min at an energy fluence rate of 16 mW/cm^2 (measured using a Newport optical power meter Model 840). Unirradiated cells served as control samples. The following day, cells were washed with pre-warmed PBS, and MTT (3-[4,5-dimethyl-thiazol-2-yl]-2.5-diphenyltetrazolium bromide, Sigma, 0.3 mg/mL) in PBS was added to each well. Samples were allowed to incubate for additional 2 h, after which dark blue crystals formed. DMSO was added to each well and plates were shaken at room temperature for 1 h to dissolve the purplish-blue formazan crystals. Absorbance values at 490 nm were measured on a microplate reader (BioRad 550). Cell survival was calculated based on the absorbance of the untreated cells alone (as control) and were directly proportional to the number of viable cells in culture. Results were reported as average of triplicate measurements.

[3] = system: triple-positive breast cancer cell ZR-75-1; format: cell-based; set-up: % Cell Survival: concentration or dose not given beside the values; conditions: for % Cell Survival: ZR-75-1, 24 h compound treatment followed by 2 min light irradiation (1.92 J cm^−2); for dark toxicity ranking / dark toxicity: unirradiated TPBC cells
Method: as §1, §2

[4] = system: triple-positive breast cancer cell ZR-75-1; assay: Fluorescence microscopy (Hoechst 33258), ZR-75-1 cells; format: cell-based, Human; conditions: 24 h compound treatment followed by 2 min light irradiation (1.92 J cm^−2)
Method: Fluorescence microscopy was used to visualize and examine the cell morphological features before and after photosensitization. Specific cellular characteristics can identify the mechanism of cell death which can be exploited to understand therapeutic outcome. […] After aspirating the old growth media, 1 mL of the compound or photosensitizer (with varying concentrations) in fresh pre-warmed media at 37° C. was added to each well. […] Images were recorded using fluorescence microscopy (DAPI for Hoechst 350-390 nm excitation and 460-490 nm emission filters) using an upright fluorescence microscope with Retiga imaging 2000R (Nikon Optiphot-2, 20× and 40×) and an image processing Nikon NIS-Elements V4.0 Qimaging software.

| Compound | % Cell Survival [2] [%] | dark toxicity ([2]; TNBC cells, 24-hr treatment) | dark toxicity ranking ([2]; TNBC cells) | % Cell Survival [3] [%] | dark toxicity ranking [3] | Morphological Features [4] | dark toxicity [3] | further results |
| --- | --- | --- | --- | --- | --- | --- | --- | --- |
| 13^1-Hexamethylenediaminyl-Biotinylchlorin e6 dimethyl ester indium (III) chloride [Example 5] | 56 | exhibited dark toxicity | Example 3 (most phototoxic in the dark)>Example 1>Example 6>Example 5 | 12.9 | Example 3>Example 5>MePheo>Example 6 | Cell debris apparent |  | decrease in cell proliferation of colon cancer cells ([1]; irradiation for 2 min, compared to MePheo, Example 1 or Example 3): 30% |
| 13^1-Hexamethylenediaminyl-bexarotenylchlorin e6 dimethyl ester indium (III) chloride [Example 6] | 33 | exhibited dark toxicity | Example 3 (most phototoxic in the dark)>Example 1>Example 6>Example 5 | 80 | Example 3>Example 5>MePheo>Example 6 | Clustered cells, intact nuclei |  |  |
| C=Cc1c(C)c2cc3nc(c(CC(=O)OC)c4[nH]c(cc5nc(cc1[nH]2)C(C)=C5CC)c(C)c4C(=O)NCCCCCCNC(=O)CCCC[C@@H]1SC[C@@H]2NC(=O)N[C@@H]21)[C@@H](CCC(=O)OC)[C@@H]3C [Example 1, 13^1-Hexamethylenediaminyl-biotinylchlorin e6 dimethyl ester] | 8.1 | exhibited in vitro dark cytotoxicity at 5 μM concentration | Example 3 (most phototoxic in the dark)>Example 1>Example 6>Example 5 | 4.2 |  |  | no toxicity | increase of cell inhibition upon irradiation compared to methyl pheophorbide (MePheo) ([1]; colon cancer cells, upon irradiation): approximately 19%; phototoxicity at nanomolar concentrations ([2]; TNBC cells, 100 nM to 200 nM, light activation): showed a light-activation dose response; cell inhibition ([2]; TNBC cells, 100 nM, 5 min light dose (4.8 J cm^−2)): 60%; reduction in cell proliferation ([2]; TNBC cells, 200 nM, lowest light dose used): ~50%; cell survival in the absence of light ([2]; TNBC cells, 5 μM, 24-hr treatment, no light): 86%; dark toxicity ([3]; listed as Example l): no dark toxicity |
| C=C(c1ccc(C(=O)O)cc1)c1cc2c(cc1C)C(C)(C)CCC2(C)C [Bexarotene, reference compound] | 111 |  |  | 110 |  |  |  |  |
| O=C(O)CCCC[C@@H]1SC[C@@H]2NC(=O)N[C@@H]21 [Biotine, biotin, reference compound] | 116 |  |  | 99 |  |  |  | toxicity to colon cancer cells (cell viability assay) ([1]; in the dark and in the presence of light, concentration up to 50 μM): not toxic |
| C=Cc1c(C)c2cc3nc(c4c5[nH]c(cc6nc(cc1[nH]2)C(C)=C6CC)c(C)c5C(=O)[C@@H]4C(=O)OC)[C@@H](CCC(=O)OC)[C@@H]3C [Methyl pheophorbide a, reference compound] | 21 | no significant dark response |  | 3.4 | Example 3>Example 5>MePheo>Example 6 |  |  |  |
| Zn(II)-13^1-Hexamethylenediaminyl-Biotinylchlorin e6 dimethyl ester [Example 3] | 16 | exhibited dark toxicity | Example 3 (most phototoxic in the dark)>Example 1>Example 6>Example 5 | 15.4 | Example 3>Example 5>MePheo>Example 6 |  | most phototoxic in the dark |  |
| 13^1-Hexamethylenediaminyl-bexarotenylchlorin e6 dimethyl ester [Example 2] | 7.7 |  |  | 4.6 |  |  |  |  |
| Zn(II)-13^1-Hexamethylenediaminyl-bexarotenylchlorin e6 dimethyl ester [Example 4] | 108 | no significant dark response |  | 105 |  | Clustered cells, intact nuclei | no toxicity |  |
